Measured values published in US8796340B2, “Pharmaceutical composition comprising propofol” (Novaliq GmbH, priority 2009, dated 2014).

Excerpt: In further embodiments, the propofol concentration is from about 0.01 wt.-% to about 80 wt.-%, or from about 0.1 wt-% to about 50 wt.-%, or from about 1 wt.-% to about 20 wt.-%, or from about 2 wt.-% to about 20 wt.-%, respectively. In further embodiments, the strength is about 1 wt.-% or higher, such as about 2 wt.-%, 5 wt.-%, 10 wt.-%, 20 wt.-%, or 25 wt.-%.

Q: For `CC(C)c1cccc(C(C)C)c1O` [propofol, 2,6-di(propan-2-yl)phenol], which “propofol concentration possible in SFA solutions” value (SFA solutions) is on record?
A: The value was “up to 960 mg/mL”.

Q: What about the “miscibility with SFA's” value (in most SFA's including F4H5, F6H6 and F6H8) of the same compound?
A: Its value is “freely miscible”.
